The target of series [1] is T1, cloned human MT2 receptors (Homo sapiens, UniProt P49286).
T1 construct: expressed in transfected cells
T1 sequence (P49286 1-362): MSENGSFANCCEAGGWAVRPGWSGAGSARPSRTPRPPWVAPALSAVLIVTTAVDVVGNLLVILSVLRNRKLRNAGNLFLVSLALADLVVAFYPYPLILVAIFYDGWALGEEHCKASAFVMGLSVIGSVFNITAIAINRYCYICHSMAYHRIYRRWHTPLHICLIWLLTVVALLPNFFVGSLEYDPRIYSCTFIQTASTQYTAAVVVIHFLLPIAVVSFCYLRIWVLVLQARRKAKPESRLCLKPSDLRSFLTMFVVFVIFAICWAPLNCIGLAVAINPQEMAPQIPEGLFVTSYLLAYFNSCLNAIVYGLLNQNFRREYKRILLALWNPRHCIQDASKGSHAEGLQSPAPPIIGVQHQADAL
Description: [35S]GTPγS binding assay, NIH3T3 cells expressing human MT2. Type of series: biochemical. The settings on record: maximal net effect relative to MLT. The procedure:
(§1) Membranes were incubated for 90 min at 37° C. in binding buffer (Tris/HCl 50 mM, pH 7.4). The final membrane concentration was 5-10 μg of protein per tube. […] The pKi values are the mean of at least three independent determinations performed in duplicate. To define the functional activity of the compounds of Formula (I) at the MT1 and MT2 receptor subtypes, [^35S]GTPγS binding assays in NIH3T3 cells expressing human-cloned MT1 or MT2 receptors were performed. The amount of bound [^35S]GTPγS is proportional to the level of analogue-induced G-protein activation and is related to the intrinsic activity of the compound (i.e. a compound of Formula (I)) under study. […] Nonspecific binding was assessed using non-radiolabeled GTPγS (10 μM). […] Basal stimulation is the amount of [^35S]GTPγS specifically bound in the absence of the compounds of Formula (I) and was taken as 100%. […] All of the measurements were performed in triplicate.
For orientation: Binding of GTPγS marks nucleotide exchange on a G protein.

Series [2] addresses T2, cloned human MT1 receptors (Homo sapiens, UniProt P48039).
T2 construct: expressed in transfected cells
Description: 2-[125I]iodomelatonin competition binding, human MT1 in NIH3T3 cells. The settings on record: calculated from IC50 by Cheng-Prusoff, mean of at least three determinations. As to the method: as §1

Series [3] concerns the target T2, cloned human MT1 receptors. In words: [35S]GTPγS binding assay, NIH3T3 cells expressing human MT1. For MT1 Activity: key: A = agonist; PA = partial agonist; ANT = antagonist; IA = Inverse agonist. Type of series: biochemical. The procedure: as §1
For series [4], the target named is T1, cloned human MT2 receptors. In words: 2-[125I]iodomelatonin competition binding, human MT2 in NIH3T3 cells. The settings on record: human MT2 in NIH3T3 cells; calculated from IC50 by Cheng-Prusoff; mean of at least three determinations. The procedure: as §1
Series [5] deals with Male rats (Sprague-Dawley). Description: EEG and EMG sleep recordings (slow wave sleep, REM sleep, wakefulness). Type of series: in vivo, rat. As to the method:
Male rats (Sprague-Dawley) weighing approximately 300-340 g were used for surgical implantation of electroencephalogram (EEG) and electromyogram (EMG) electrodes. Following the recovery from surgery, the animals were housed separately in cages and kept on a 12-hour light/dark cycle (12 h light-12 h dark, 7:30 AM lights on) at a controlled temperature (21° C.). The rats had free access to food and water ad libitum.
Rats were anaesthetized using equithesin (425 mg chloral hydrate, 1 ml 100% ethanol, 98 mg pentobarbitone, 213 mg magnesium sulphate and 3 ml propylene glycol, sterile water per 10 ml of solution; 1 ml per 300 g body weight i.p.) and placed in a stereotactic frame. The skull was exposed and carefully cleaned. Two stainless-steel epidural electrodes were implanted for the registration of the EEG under stereotactic control, through 1.5 mm burr holes at the coordinates corresponding to the right parietal-occipital cortex (AP=−2 mm L=3 mm; AP=−7 mm L=3 mm) and the left parietal-occipital cortex (AP=−4.5 mm L=3 mm) according to the atlas by Paxinos (The Rat Brain in Stereotaxic Coordinates, Academic Press, 1995). Three stainless steel wire electrodes, isolated except for the last few millimeters, were implanted into the neck muscles (two bilaterally and one in the middle) for the monitoring of the EMG. The EEG epidural electrodes and the EMG wires were fitted to a six-pin female connector. For fixation to the skull, the wires and connector were covered with dental acrylic (Coltene/Whaledent Inc. USA). The animals were allowed to recover from the surgery for at least 3-4 days.
Twenty-four hours (24 h) following the surgery, the rats were placed in the recording room from noon to 9:00 PM, for 3-4 days. The rats were connected to the 6-flat cable (3M), in a freely-moving manner, from 6:00 PM to 9:00 PM for habituation. No recordings were performed at this time, however, the tolerance to the cable and the sleep behavior were observed.
Following 3-4 days of habituation, the rats received the injection of a vehicle (DMSO/saline 7:3, 0.2 ml s.c.) at 6:00 PM and the recording was carried out until 9:00 PM. On the following day the rats received diazepam (2 mg/kg, s.c.) at 6:00 PM and the recording was performed until 9:00 PM. Four days following the injection of diazepam, the rat received 5b (40 mg/kg s.c.) and the recording also performed from 6 to 9 PM.
For each experiment, a rat was placed individually in the cage and monitoring of the signal was carried out via the attachment of a non-restraining 6-wire flat cable and a female connector, which was connected to an impedance transformer with a gain of 10, located above the cage. The EEG signal was amplified (resulting in a total gain of 10,000) and locally filtered. The EMG signal was amplified as the EEG, (EEG: low filter 1.0 Hz; high 1 KHz, EMG: low filter 30.0 Hz; high 3 KHz). The power spectra analysis was performed for identification of the sleep stages. The behavior of the animals was observed during the experiment (eye movements, ambulation, rearing etc.).
The three classical vigilance-sleep states described in the rat were discriminated on the basis of the cortical EEG and neck EMG, following the classification by Ruigt et al. (Electroencephalography and clinical Neurophysiology, 1989, 73: 52-63). Wakefulness was identified by a low-amplitude and desynchronized EEG with sustained EMG activity. Slow wave sleep (SWS, includes Quiet sleep, deep sleep and Pre-REM) was clearly distinguished by high-voltage delta waves (2-4 Hz) and spindles associated with a […] EMG activity. Pre-REM sleep was characterized by a clear theta rhythm in the EEG, frequently alternating with short lasting, high voltage spindles. REM sleep was characterized by a low-amplitude EEG with a pronounced theta rhythm (5.5-8.5 Hz), a complete loss of muscle tone, and a low voltage EMG. […]

In another series the test system is Sprague Dawley rats. In words: Novelty-Induced Suppressed Feeding (NSF) Test. In kind it is in vivo, rat. The settings on record: diazepam 2 mg/kg s.c., 45 min before the test. As to the method: The NSF test is used to assess the anti-anxiety effect of a drug [Bodnoff et al. Psychopharmacology 1988, 95(3), 298-307]. Sprague Dawley rats were used in the NSF test. The testing apparatus comprises a brightly lit open area covered with lab chow pellets. Forty-eight hours prior to behavioral testing, all food was removed from the apparatus. Animals treated with compound 5b (40 or 80 mg/kg) were injected 60 min before the test, whereas animals treated with vehicle (DMSO/saline 7:3) or diazepam were injected 45 min before the test. The drugs were administered subcutaneously and the experiments were conducted after 5:30 PM. The latency to feed, defined as chewing the food as opposed to merely sniffing or playing with a pellet, was then recorded (Table 6). The experiment was terminated for those animals that had not begun eating within a period of 360 seconds, which animals were assigned a latency score of 360 seconds. All analyses were conducted using Sigma Stats and SPSS software. The results are expressed as the mean±SEM per n (number) animals tested (*, p<0.01, ANOVA or t test).

For series [6], the system named is Adult Sprague Dawley rats. Description: Elevated plus maze (EPM). In kind it is in vivo, rat. The settings on record: diazepam 2 mg/kg, injected 45 min before test. As to the method: The maze is comprised of two open arms (50×10 cm) and two closed arms (50×10×40 cm) that extend from a common central platform (10×10 cm). The apparatus, made of wood (painted black) was elevated to a height of 80 cm above floor level. The closed arms are located opposite one another. Behavior is recorded over a period of 5 min using a video camera positioned directly above the maze and rated by an observer blind to drug conditions. The major measure of interest is the amount of time spent in the open arms. As an index of general activity and distribution, the total number of entries into both open and closed arms was also recorded. […] In order to increase the sensitivity of this test to anxiolytic activity, tests are carried out under normal room illumination (25 W bulb).

Setting [7] is: diazepam 2 mg/kg s.c., Mean ± SEM of 11 rats.
Setting [8] is: diazepam 2 mg/kg s.c., Mean ± SEM of 11 rats, listed as diazepam.
Where [9] appears, read: diazepam 2 mg/kg s.c., individual rats 1-11.

This is an account of results in patent publication US8791163B2 (McGill University, priority 2006, dated 2014).

Where “and” joins values, the source holds several entries; their conditions need not be identical. Equal values may be shown once. Entries after “also recorded” stand apart in the source; their conditions may differ. Read-outs that look alike come from different tables or passages of the source.

T2 sequence (P48039 whole entry): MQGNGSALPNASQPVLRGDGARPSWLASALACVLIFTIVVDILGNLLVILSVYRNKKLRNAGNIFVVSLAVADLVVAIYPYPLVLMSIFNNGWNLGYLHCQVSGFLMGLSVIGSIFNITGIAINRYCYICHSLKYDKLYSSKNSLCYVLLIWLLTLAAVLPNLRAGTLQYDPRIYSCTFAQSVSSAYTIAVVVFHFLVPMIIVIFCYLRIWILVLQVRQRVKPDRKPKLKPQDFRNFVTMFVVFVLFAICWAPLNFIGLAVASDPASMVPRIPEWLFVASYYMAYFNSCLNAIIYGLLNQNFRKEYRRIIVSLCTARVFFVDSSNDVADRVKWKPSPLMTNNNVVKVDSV

As a reminder, the melting point is the temperature of the solid-liquid transition. With `CC(=O)NCCN(c1ccccc1)c1ccccc1` [5a, N-[2-(diphenylamino)ethyl]acetamide], the melting point is 44 to 45 °C. Also, the “MT2 IAr ± SEM (relative intrinsic activity)” value in series [1] was found to be 0.57 ± 0.04. The “MT1 pKi” value in series [2] is given as 6.90 ± 0.04. Moreover, the “MT1 Activity” value in series [3] is listed as “ANT”. For the same molecule, the “MT1 IAr ± SEM (relative intrinsic activity)” value in series [3] (maximal net effect relative to MLT) was found to be 0.10 ± 0.03. Moreover, in series [4], the “MT2 pKi” value is recorded as 8.41 ± 0.13.

As to `CN1C(=O)CN=C(c2ccccc2)c2cc(Cl)ccc21` [Diazepam], in series [5], the “Slow Wave Sleep Duration” value was 58.45 min and 89.15 min and 84 min and 105.18 min and 99.03 min and 103.14 min and 92.36 min and 114.55 min and 94.85 min and 88.22 min and 83.9 min; the “Slow Wave Sleep Latency” value was 18.02 min and 3.98 min and 8.25 min and 2.86 min and 6.93 min and 3.06 min and 18.42 min and 13.59 min and 22.5 min and 6.51 min and 26.36 min; the “Wakefulness Duration” value is 69.58 min and 73.27 min and 68.04 min and 83.4 min and 62.00 min and 82.58 min and 85.76 min and 66.32 min and 115.52 min and 71.04 min and 80.79 min. Further, in series [5] (setting [7]), the “REM Sleep Duration” value is on record as 6.5 ± 0.7 min, the “REM Sleep Latency” value worked out at 74.5 ± 5.2 min, the “REM Sleep Mean of a Single Episode” value is 1.43 ± 0.11 min and the “REM Sleep Number (episodes)” value amounted to 4.6 ± 0.5 episodes. In addition, in series [5] (setting [7]), the “Slow Wave Sleep Duration” value is given as 92.0 ± 4.4 min, the “Slow Wave Sleep Mean of a Single Episode” value was found to be 5.4 ± 0.38 min, the “Slow Wave Sleep Number (episodes)” value is reported as 18.0 ± 1.6 episodes and the “Wakefulness Duration” value is listed as 78.2 ± 4.43 min. Moreover, in series [5] (setting [7]), the “Wakefulness Mean of a Single Episode” value was determined as 2.7 ± 0.84 min and the “Wakefulness Number (episodes)” value turned out to be 17.0 ± 1.52 episodes. In series [5] (setting [8]), the “REM Sleep Duration (min)” value is “significantly decreases”, the “REM Sleep Latency (min)” value was “significantly increases”, the “REM Sleep Number (episodes)” value was “significantly decreases” and the “Slow Wave Sleep Duration (min)” value was “increase the duration of the SWS; also recorded: significantly increases”. In series [5] (setting [8]), the “Slow Wave Sleep Latency (min)” value is reported as “significantly decreases”, the “Slow Wave Sleep Mean of a Single Episode (min)” value was “significantly increase”, the “Slow Wave Sleep Number (episodes)” value was “no influence” and the “Wakefulness Duration (min)” value is given as “significantly decreases”. For the same molecule, the “Wakefulness Number (episodes)” value in series [5] (setting [8]) is reported as “no influence”. In series [5] (setting [9]), the “REM Sleep Duration” value is 6.04 min and 5.45 min and 12.03 min and 5.18 min and 7.71 min and 8.81 min and 4.23 min and 5.86 min and 2.55 min and 8.52 min and 5.62 min; the “REM Sleep Latency” value was 102.43 min and 56.83 min and 56.59 min and 96.4 min and 61.69 min and 93.4 min and 72.26 min and 86.41 min and 58.92 min and 73.3 min and 61.33 min; the “REM Sleep Mean of a Single Episode” value is 1.51 min and 1.816 min and 1.718 min and 1.295 min and 1.542 min and 0.978 min and 1.05 min and 1.465 min and 0.85 min and 2.13 min and 1.405 min; the “REM Sleep Number (episodes)” value is 4 episodes (6×) and 3 episodes (2×) and 7 episodes and 5 episodes and 9 episodes. In addition, in series [5] (setting [9]), the “Slow Wave Sleep Mean of a Single Episode” value was 6.49 min and 7.42 min and 3.11 min and 5.53 min and 4.3 min and 5.15 min and 4.39 min and 4.98 min and 6.77 min and 5.18 min and 6.45 min; the “Slow Wave Sleep Number (episodes)” value is 9 episodes and 12 episodes and 27 episodes and 19 episodes and 23 episodes (2×) and 20 episodes and 21 episodes and 14 episodes and 17 episodes and 13 episodes; the “Wakefulness Mean of a Single Episode” value is 12.83 min and 5.92 min and 4.03 min and 3.66 min and 3.05 min and 4.00 min and 3.79 min and 2.69 min and 5.5 min and 5.71 min and 6.02 min; the “Wakefulness Number (episodes)” value is 9 episodes and 12 episodes and 20 episodes and 19 episodes and 24 episodes and 17 episodes and 22 episodes and 23 episodes and 15 episodes (2×) and 11 episodes. Also, the “Latency (sec) to feed” value in the series on Sprague Dawley rats is reported as 36.10 ± 15.32 (P ≦ 0.001)* sec. Also, the “Latency (sec) to feed” value with Sprague Dawley rats (listed as diazepam) is reported as “decreased latency to feed”. Moreover, in series [6], the “Head Dips” value is 11.37 ± 2.12 (P = 0.01), the “Percentage of time in Closed Arms” value was 67.75 ± 5.87 (P = 0.007) %, the “Percentage of time in Open Arms” value is 32.25 ± 5.9 (P = 0.006) % and the “Total time duration in the Closed Arms” value is reported as 178.71 ± 18.16 (P = 0.006) sec/closed arm. In series [6], the “Total time duration in the Open Arms” value is recorded as 122.0 ± 18.0 (P = 0.008) sec/open arm. Also, the “Head Dips” value in series [6] (listed as diazepam) is given as “increase in the number of head dips”.
